What was measured:
[1] = test system: rat brain (BBB); assay: Evans Blue accumulation in rat brain after alternating electric fields; assay type: in vivo
Text: A set of in vivo experiments on rats was also run to quantify the increase in vessel permeability caused by exposure to the alternating electric fields. These experiments used Evans Blue (EB) dye, which is an azo dye that has a very high affinity for serum albumin (molecule size ˜69 kDa). Because of its large molecule size, serum albumin will ordinarily not be able to get past the BBB.
This was accomplished by shaving each rat's head, positioning a first pair of capacitively coupled electrodes on the top and bottom of the rat's head, and positioning a second pair of capacitively coupled electrodes on the left and right sides of the rat's head. A 100 kHz AC voltage was then applied between the top and bottom electrodes for 1 second, followed by a 100 kHz AC voltage applied between the right and left electrodes for 1 second, in a repeating sequence.
Under the conditions indicated in Table 1 and for the times indicated on Table 1, EB was injected intravenously into the tail vein under anesthesia (Once injected, EB immediately binds to Albumin), and the EB was allowed to circulate for 2 hours in all cases. The following steps were then performed: (a) intracardiac perfusion with saline; (b) brains are sliced in four pieces with a brain slicer; (c) pieces were photographed to localize staining and weighted; (d) EB extraction after tissue homogenization with TCA 50% (1:3) and centrifuge and (e) EB quantification at 610 nm. Results are given as μg EB per g tissue.
During the experiment, two animals from group 2 and one animal from group 4 were excluded (disrupted treatment, failure to inject EB into the tail vein). There were no differences between the animals treated with alternating electric fields (groups 1 and 2) and therefore these animals were grouped together. Similarly, there were no differences between sham heat and control animals (groups 3 and 4) and therefore these animals were grouped together.
EB accumulation in these four specific sections was then measured. In addition, a computer simulation was performed to determine the field strength in each of these four sections. […]

[2] = test system: rat brain (BBB); assay: Dynamic Contrast Enhanced MRI (DCE-MRI) of rat brain; assay type: in vivo
Experimental: Yet another set of in vivo experiments was performed using Dynamic Contrast Enhanced MRI (DCE-MRI) with intravenous injection of Gadolinium contrast agent (Gd-DTPA, Magnetol, MW 547). In these experiments, test rats were treated with 100 kHz alternating electric fields for 72 h, and control rats were not treated with alternating electric fields for the same period of time. After this 72 h period, the alternating electric field was turned off, the rats were anesthetized, and a series of 60 T1w MRI scans (each of the scans having a duration of 28 seconds) was acquired. The gadolinium contrast agent was injected into the rat's tail vein during the 7th of these 60 scans.
The image analysis for each rat included (1) determining a baseline for each voxel by calculating the mean of the first six T1w MRI scans for each voxel (i.e., the scans prior to the injection of the gadolinium); (2) computing voxel by voxel, the percent signal change (i.e., gadolinium accumulation) over time relative to the baseline; (3) segmenting the brain into anterior, middle, and posterior segments; (4) generating for each of the three segments the mean percent signal change with respect to the baseline over all the voxels in the respective segment and then (5) averaging 4 consecutive time points (i.e. 4 scans) together. Finally, the data from all of the rats within any given group were averaged together. […]

Row | average EB accumulation in the rat brain, averaged over all four sections 1-4 ([1]; 100 kHz fields 72 h vs control, p<0.05) | EB accumulation in brain sections 1, 2 (frontal cerebrum) ([1]; 100 kHz fields 72 h vs sham heat/control, EB i.v., 2 h circulation, highest field strength) | Structure (SMILES) | EB accumulation in posterior brain sections (3, 4) ([1]; 100 kHz fields 72 h vs sham heat/control, EB i.v., 2 h circulation, lower field strength) | contrast agent accumulation in the brain tissue (percent signal change) ([2]; 100 kHz fields 72 h (n=6) vs control rats (n=3), i.v.) | contrast agent accumulation in the brain tissue (percent signal change) ([2]; 100 kHz fields 72 h followed by 96 hours without fields (n=7) vs control+96 h (n=3))
1 | higher accumulation | statistically significant increase | Cc1cc(-c2ccc(/N=N/c3ccc4c(S(=O)(=O)O)cc(S(=O)(=O)O)c(N)c4c3O)c(C)c2)ccc1/N=N/c1ccc2c(S(=O)(=O)O)cc(S(=O)(=O)O)c(N)c2c1O [EB, Evans Blue] | smaller increase (that was not statistically significant) | – | –
2 | – | – | O=C([O-])CN(CCN(CC(=O)[O-])CC(=O)O)CCN(CC(=O)[O-])CC(=O)O.[Gd+3] [contrast agent, Gd-DTPA] | – | significantly higher | not significantly different
